Results on 14 molecules are retold here after PubChem BioAssay (NCI).

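Step 1: Grow cells in 96-well plates. Step 2: Expose to compound for 48 hours at 5 concentrations. Step 3: Interpolate endpoints linearly; if unreached, use highest concentration. The concentration for 50% growth inhibition is given as GI50. TGI: concentration producing complete growth inhibition.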

Test systems include SK-MEL-5 melanoma; COLO 205 colon; OVCAR-3 ovarian; 786-0 renal; SK-MEL-2 melanoma; SF-539 CNS; SNB-19 CNS; IGROV1 ovarian; NCI-H23 lung; HL-60(TB) leukemia; MDA-MB-435.
Holding throughout (assay): growth of human tumour cells (NCI), 48 h

For `C=C(C)C(=O)OC1C/C(CO)=C\C(O)C/C(C)=C/C2OC(=O)C(=C)C21` (configuration not stated), the TGI in the assay with SK-MEL-5 melanoma turned out to be 44.1 µM; in the assay with COLO 205 colon it was 38.3 µM; with OVCAR-3 ovarian it was 59.4 µM; in the assay with 786-0 renal, 37.1 µM; in the assay with SK-MEL-2 melanoma, 36.6 µM; with SF-539 CNS, 46.3 µM. Also, the TGI in the assay on SNB-19 CNS and in the assay on IGROV1 ovarian was greater than 100 µM in each case.
Take `CCCCC#C[I+]c1ccccc1`: the TGI with SK-MEL-5 melanoma was 31.1 µM; in the assay on COLO 205 colon it was 28.7 µM; in the assay with OVCAR-3 ovarian, 30.7 µM; with 786-0 renal, 28.8 µM; in the assay on SK-MEL-2 melanoma, 34.1 µM; in the assay with SF-539 CNS it was 38.8 µM. For the same molecule, the TGI worked out at 30.9 µM in the assay on SNB-19 CNS, 27.3 µM in the assay with NCI-H23 lung, 36.4 µM in the assay with IGROV1 ovarian and 40.1 µM in the assay on HL-60(TB) leukemia.
For `Nc1nc(SCCc2ccccc2)c2[nH]cnc2n1`, the TGI in the assay with SK-MEL-5 melanoma is greater than 100 µM; with OVCAR-3 ovarian, greater than 100 µM; in the assay on 786-0 renal, greater than 100 µM; in the assay on SK-MEL-2 melanoma it was 82.9 µM; in the assay on SNB-19 CNS, greater than 100 µM; in the assay on NCI-H23 lung, greater than 100 µM. The TGI with IGROV1 ovarian and in the assay with MDA-MB-435 was greater than 100 µM in each case.
Regarding `COc1ccc2c(c1)/C(=C/CCN(C)C)c1ccccc1S2`, the TGI in the assay on SK-MEL-5 melanoma is 31.7 µM; in the assay on COLO 205 colon, 38 µM; in the assay on OVCAR-3 ovarian, greater than 100 µM; with SNB-19 CNS, greater than 100 µM; in the assay on NCI-H23 lung, greater than 100 µM; with HL-60(TB) leukemia, greater than 100 µM. Moreover, the TGI in the assay on MDA-MB-435 was greater than 100 µM.
Take `CC1CCC(n2c3cnccc3c3cnc(Nc4ccc5c(n4)CCN(C(=O)CO)C5)nc32)CC1` (configuration not stated): the GI50 with SK-MEL-5 melanoma is 0.792 µM; in the assay with OVCAR-3 ovarian, greater than 100 µM; with SK-MEL-2 melanoma it was greater than 100 µM; in the assay with SNB-19 CNS, 0.845 µM; in the assay on MDA-MB-435, 0.66 µM. For the same molecule, the TGI in the assay on SK-MEL-5 melanoma, in the assay on OVCAR-3 ovarian, in the assay with SK-MEL-2 melanoma, in the assay with SNB-19 CNS and with MDA-MB-435 was greater than 100 µM in each case.
Take `C[C@@H](NC(=O)[C@@H]1C[C@]1(C)COC(=O)c1cc([N+](=O)[O-])cc([N+](=O)[O-])c1)c1cccc2ccccc12`: the TGI in the assay with SK-MEL-5 melanoma, with COLO 205 colon, in the assay with OVCAR-3 ovarian, with 786-0 renal, in the assay on SK-MEL-2 melanoma and in the assay on SNB-19 CNS was greater than 100 µM throughout. Besides, the TGI with NCI-H23 lung, in the assay on IGROV1 ovarian and in the assay on MDA-MB-435 was greater than 100 µM throughout.
Turning to `O=c1ccc(-c2ccccc2)n[nH]1`, the TGI in the assay with SK-MEL-5 melanoma, with OVCAR-3 ovarian, in the assay with 786-0 renal, with SK-MEL-2 melanoma, in the assay on SNB-19 CNS and with NCI-H23 lung was greater than 100 µM throughout. Further, the TGI in the assay on IGROV1 ovarian, in the assay on HL-60(TB) leukemia and in the assay on MDA-MB-435 was greater than 100 µM throughout.
Turning to `COc1cccc(C(=O)O[C@H]2[C@@H]3[C@]4(OC(C)=O)CO[C@@H]4C[C@H](O)[C@@]3(C)C(=O)[C@H](OC(C)=O)C3=C(C)[C@@H](OC(=O)[C@H](O)[C@@H](NC(=O)OC(C)(C)C)c4ccco4)C[C@]2(O)C3(C)C)c1`, the TGI is greater than 15.7 µM in the assay on SK-MEL-5 melanoma; 0.119 µM in the assay with COLO 205 colon; less than 0.00375 µM with OVCAR-3 ovarian; greater than 37.5 µM in the assay with 786-0 renal; 16.9 µM in the assay with SK-MEL-2 melanoma; 0.33 µM in the assay on SF-539 CNS. Also, the TGI was greater than 30 µM in the assay with SNB-19 CNS, greater than 37.5 µM with NCI-H23 lung, greater than 37.5 µM with IGROV1 ovarian and 0.0909 µM in the assay with MDA-MB-435.
Take `Cc1ccc(N=NC(=Nc2ccccc2)c2ccc(N(CCC#N)CCC#N)cc2)cc1`: the TGI with SK-MEL-5 melanoma was 47 µM; in the assay on COLO 205 colon it was greater than 100 µM; in the assay on OVCAR-3 ovarian, 75.1 µM; in the assay on 786-0 renal it was greater than 100 µM; in the assay with SK-MEL-2 melanoma, 48 µM; with SF-539 CNS it was greater than 100 µM. Besides, the TGI was greater than 100 µM with SNB-19 CNS, 43.9 µM in the assay with NCI-H23 lung, 57.1 µM in the assay on IGROV1 ovarian and greater than 100 µM in the assay with MDA-MB-435.
Consider `CC(C)CCS(=O)(=O)OCCCCOS(=O)(=O)CCC(C)C`, for which the TGI in the assay on COLO 205 colon was greater than 100 µM; in the assay with OVCAR-3 ovarian it was 29.9 µM; with 786-0 renal it was greater than 100 µM; in the assay on SF-539 CNS it was greater than 100 µM; in the assay on SNB-19 CNS, greater than 100 µM; in the assay with NCI-H23 lung it was greater than 100 µM. The TGI in the assay on IGROV1 ovarian and with HL-60(TB) leukemia was greater than 100 µM in each case.
`COc1cc2c(c(OC)c1OC)C(=O)[C@@H]1[C@H]2N1C(N)=O`: the TGI in the assay with SK-MEL-5 melanoma, in the assay on COLO 205 colon, in the assay on OVCAR-3 ovarian, with 786-0 renal, in the assay with SF-539 CNS and in the assay with SNB-19 CNS was greater than 100 µM each time. Further, the TGI in the assay with NCI-H23 lung, in the assay on IGROV1 ovarian, in the assay with HL-60(TB) leukemia and in the assay on MDA-MB-435 was greater than 100 µM throughout.
With `N#Cc1c(-c2ccccc2)/c(=C\Nc2cccc(C(F)(F)F)c2)c(=O)n2c1nc1ccccc12`, the TGI in the assay with SK-MEL-5 melanoma is greater than 100 µM; in the assay on COLO 205 colon it was greater than 100 µM; with 786-0 renal it was greater than 100 µM; in the assay with SK-MEL-2 melanoma, greater than 100 µM; in the assay on SF-539 CNS, 37.8 µM; in the assay with SNB-19 CNS, greater than 100 µM. For the same molecule, the TGI with NCI-H23 lung, in the assay on IGROV1 ovarian and in the assay on MDA-MB-435 was greater than 100 µM throughout.
Regarding `COC(=O)c1c(C)cccc1C1CN=NC12Cc1ccc(C)cc1C2=O` (configuration not stated), the TGI was 44.1 µM in the assay on SK-MEL-5 melanoma; greater than 100 µM in the assay with OVCAR-3 ovarian; greater than 100 µM in the assay on 786-0 renal; greater than 100 µM with SF-539 CNS; greater than 100 µM in the assay on SNB-19 CNS; greater than 100 µM in the assay on NCI-H23 lung. In addition, the TGI was greater than 100 µM in the assay on IGROV1 ovarian, 47.1 µM in the assay with HL-60(TB) leukemia and greater than 100 µM in the assay with MDA-MB-435.
For the molecule `Nn1c(-c2ccccc2)nn(C(=O)c2ccccc2)c1=O`, the TGI with SK-MEL-5 melanoma, with COLO 205 colon, in the assay with OVCAR-3 ovarian, in the assay on 786-0 renal, in the assay on SF-539 CNS and in the assay with SNB-19 CNS was greater than 100 µM each time. For the same molecule, the TGI in the assay with NCI-H23 lung, in the assay with IGROV1 ovarian, with HL-60(TB) leukemia and in the assay with MDA-MB-435 was greater than 100 µM each time.
